We go through 25 compounds from patent US20040259926A1, “3-Aryloxy and 3-heteroaryloxy substituted benzo[b]thiophenes as therapeutic agents” (priority 2003, published 2004).

T1 sequence (P48736 whole entry, species assumed): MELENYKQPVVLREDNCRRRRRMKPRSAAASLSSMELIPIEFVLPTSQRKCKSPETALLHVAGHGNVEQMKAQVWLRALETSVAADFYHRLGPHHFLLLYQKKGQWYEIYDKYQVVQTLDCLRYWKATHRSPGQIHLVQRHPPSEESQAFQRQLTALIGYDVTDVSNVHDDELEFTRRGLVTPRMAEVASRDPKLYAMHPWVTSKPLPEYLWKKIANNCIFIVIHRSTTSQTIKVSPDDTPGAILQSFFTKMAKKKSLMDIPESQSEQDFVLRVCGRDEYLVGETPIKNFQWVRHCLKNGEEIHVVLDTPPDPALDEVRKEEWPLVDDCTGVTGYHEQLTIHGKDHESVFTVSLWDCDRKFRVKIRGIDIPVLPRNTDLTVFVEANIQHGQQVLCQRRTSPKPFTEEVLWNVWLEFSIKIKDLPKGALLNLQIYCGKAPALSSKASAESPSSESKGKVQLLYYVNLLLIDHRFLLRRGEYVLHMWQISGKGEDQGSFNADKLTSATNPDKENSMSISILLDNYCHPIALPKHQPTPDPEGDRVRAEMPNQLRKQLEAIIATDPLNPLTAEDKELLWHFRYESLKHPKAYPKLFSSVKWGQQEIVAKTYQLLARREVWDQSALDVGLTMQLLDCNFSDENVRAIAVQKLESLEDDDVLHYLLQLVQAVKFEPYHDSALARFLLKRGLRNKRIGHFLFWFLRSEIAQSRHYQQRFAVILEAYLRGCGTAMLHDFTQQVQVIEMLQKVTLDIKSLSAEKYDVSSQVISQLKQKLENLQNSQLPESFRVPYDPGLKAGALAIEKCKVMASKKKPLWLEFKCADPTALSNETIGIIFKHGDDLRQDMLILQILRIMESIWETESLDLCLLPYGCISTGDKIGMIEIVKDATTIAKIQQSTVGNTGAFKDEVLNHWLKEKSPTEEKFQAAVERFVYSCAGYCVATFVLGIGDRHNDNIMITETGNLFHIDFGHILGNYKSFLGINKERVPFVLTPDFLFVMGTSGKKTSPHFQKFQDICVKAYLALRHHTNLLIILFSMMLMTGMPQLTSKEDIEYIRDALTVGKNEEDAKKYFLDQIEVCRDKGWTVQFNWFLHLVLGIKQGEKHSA
T1 sequence (Q8WYR1 whole entry partner, species assumed): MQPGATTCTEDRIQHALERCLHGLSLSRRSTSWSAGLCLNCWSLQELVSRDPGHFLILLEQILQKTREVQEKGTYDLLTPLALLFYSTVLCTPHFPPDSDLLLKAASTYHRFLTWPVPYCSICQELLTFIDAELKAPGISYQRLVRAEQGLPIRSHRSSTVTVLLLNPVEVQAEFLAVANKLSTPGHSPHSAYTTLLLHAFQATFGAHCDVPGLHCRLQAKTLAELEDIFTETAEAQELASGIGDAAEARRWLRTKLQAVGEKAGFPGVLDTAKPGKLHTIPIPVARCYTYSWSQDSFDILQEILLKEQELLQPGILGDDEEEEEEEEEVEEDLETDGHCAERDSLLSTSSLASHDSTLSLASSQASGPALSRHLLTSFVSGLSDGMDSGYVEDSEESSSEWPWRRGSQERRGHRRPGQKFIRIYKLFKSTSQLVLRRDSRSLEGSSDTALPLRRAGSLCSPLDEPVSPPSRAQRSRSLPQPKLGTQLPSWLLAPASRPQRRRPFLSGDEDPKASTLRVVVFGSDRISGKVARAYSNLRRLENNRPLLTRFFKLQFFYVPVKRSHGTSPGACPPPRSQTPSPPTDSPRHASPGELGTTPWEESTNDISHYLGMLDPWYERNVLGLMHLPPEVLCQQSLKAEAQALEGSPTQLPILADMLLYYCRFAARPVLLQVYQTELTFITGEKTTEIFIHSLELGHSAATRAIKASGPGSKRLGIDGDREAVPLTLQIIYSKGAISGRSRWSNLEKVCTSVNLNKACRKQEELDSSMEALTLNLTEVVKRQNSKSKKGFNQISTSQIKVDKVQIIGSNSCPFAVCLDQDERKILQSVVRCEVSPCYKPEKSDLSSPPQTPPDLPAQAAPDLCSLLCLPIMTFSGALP

The assay addresses T1, PI3Kγ (recombinant p101/p110γ protein) (Homo sapiens, UniProt P48736).
T1 construct: HA; made in house; host or cells: Spodoptera frugiperda (Sf9) cells, baculovirus co-infection
Kind of assay: PI3Kγ In Vitro Kinase Assay. Type of assay: biochemical. The following applies: purified recombinant p101/p110γ with G protein β1/γ2 subunits; 20 μM ATP, [γ-32P-ATP]; 25 μM PIP2 lipid micelles; 20 minutes at room temperature. A digest of the protocol: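 Baculovirus/Sf9-expressed p101/p110γ (~2.7 nM) with Gβ1/γ2 (~57.7 nM) in HEPES/NaCl/EGTA/DTT buffer; 20 μM ATP plus [γ-32P]ATP, micelles of 25 μM PIP2, 300 μM PE, 10 mM MgCl2. Reactions ran 20 minutes at room temperature; radiolabelled PIP3 captured on glass-fibre filters and counted for IC50.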
For the compound `COc1cc2c(Oc3ccc(OCc4ccccc4)cc3)c(C(=O)Nc3nn[nH]n3)sc2cc1C` [Example B.15, 3-(4-Benzyloxy-phenoxy)-5-methoxy-6-methyl-benzo[b]thiophene-2-carboxylic acid (2H-tetrazol-5-yl)-amide], the concentration for half-maximal inhibition (IC50) was found to be 76 nM.

With `COc1ccc2sc(C(=O)Nc3nn[nH]n3)c(Oc3cccc(NC(C)=O)c3)c2c1` [Example A.6, 3-(3-Acetylamino-phenoxy)-5-methoxy-benzo[b]thiophene-2-carboxylic acid (2H-tetrazol-5-yl)-amide], the concentration for half-maximal inhibition (IC50) was found to be 860 nM.

As for `COc1cc2c(Oc3ccc(CCSC(C)(C)C)cc3)c(C(=O)Nc3nn[nH]n3)sc2cc1C` [Example B.25, 3-[4-(2-tert-Butylsulfanyl-ethyl)-phenoxy)-5-methoxy-6-methyl-benzo[b]thiophene-2-carboxylic acid (2H-tetrazol-5-yl)-amide], the IC50 is 25 nM. The same measure for “5-Methoxy-6-methyl-3-(2-phenyl-propoxy)-benzo[b]thiophene-2-carboxylic acid(2H-tetrazol-5-yl)-amide amide [Example B.56]”: 56 nM; for “3-(4-Benzoyl-phenoxy)-5-methoxy-6-methyl-benzo[b]thiophene-2-carboxylic acid (2H-tetrazol-5-yl)-amide [Example B.35]”: 27 nM. The same measure for `COc1cc2c(Oc3ccc([N+](=O)[O-])cc3)c(C(=O)Nc3nn[nH]n3)sc2cc1C` [Example B.43, 5-Methoxy-6-methyl-3-(4-nitro-phenoxy)-benzo[b]thiophene-2-carboxylic acid (2H-tetrazol-5-yl)-amide]: 56 nM; for `COc1ccc2sc(C(=O)Nc3nn[nH]n3)c(Oc3ccccc3)c2c1` [Example A.1, 5-methoxy-3-phenoxy-benzo[b]thiophene-2-carboxylic acid (2H-tetrazol-5-yl)-amide]: 250 nM; for `COc1cc2c(Oc3ccc(Cl)c(F)c3)c(C(=O)Nc3nn[nH]n3)sc2cc1C` [Example B.41, 3-(4-Chloro-3-fluoro-phenoxy)-5-methoxy-6-methyl-benzo[b]thiophene-2-carboxylic acid (2H-tetrazol-5-yl)-amide]: 135 nM.

On to `COc1cc2sc(C(=O)Nc3nn[nH]n3)c(Oc3ccccc3)c2cc1C` [Example D.1, 6-Methoxy-5-methyl-3-phenoxy-benzo[b]thiophene-2-carboxylic acid (2H-tetrazol-5-yl)-amide], for which the IC50 turned out to be 41 nM. The same measure for `COc1cc2sc(C(=O)Nc3nnn[nH]3)c(OCCc3cccc4ccccc34)c2cc1OC` [Example C.17, 5,6-Dimethoxy-3-(2-naphthalen-1-yl-ethoxy)-benzo[b]thiophene-2-carboxylic acid (1H-tetrazol-5-yl)-amide]: 715 nM; for `COc1cc2c(Oc3ccc(C4CCCCC4)cc3Cl)c(C(=O)Nc3nn[nH]n3)sc2cc1C` [Example B.73, 3-(2-Chloro-4-cyclohexyl-phenoxy)-5-methoxy-6-methyl-benzo[b]thiophene-2-carboxylic acid (2H-tetrazol-5-yl)-amide]: 13 nM. The same measure for `COc1cc2sc(C(=O)Nc3nnn[nH]3)c(OCCc3cccc4ncccc34)c2cc1OC` [Example C.15, 5,6-Dimethoxy-3-(2-quinolin-5-yl-ethoxy)-benzo[b]thiophene-2-carboxylic acid (1H-tetrazol-5-yl)-amide]: 757 nM. On to `COc1cc2sc(C(=O)Nc3nnn[nH]3)c(OCc3ccc4c(c3)CCCC4)c2cc1OC` [Example C.28, 5,6-Dimethoxy-3-(5,6,7,8-tetrahydro-naphthalen-2-ylmethoxy)-benzo[b]thiophene-2-carboxylic acid (1H-tetrazol-5-yl)-amide], for which the concentration for half-maximal inhibition (IC50) is 185 nM. For `COc1cc2c(Oc3cncnc3N3CCCCC3)c(C(=O)Nc3nn[nH]n3)sc2cc1C` [Example B.37, 5-Methoxy-6-methyl-3-(4-piperidin-1-yl-pyrimidin-5-yloxy)-benzo[b]thiophene-2-carboxylic acid (2H-tetrazol-5-yl)-amide] the value was 89 nM. The same measure for `COc1cc2sc(C(=O)Nc3nnn[nH]3)c(OCCc3cc(C)cc(C)c3)c2cc1OC` [Example C.32, 3-[2-(3,5-Dimethyl-phenyl)-ethoxy]-5,6-dimethoxy-benzo[b]thiophene-2-carboxylic acid (1H-tetrazol-5-yl)-amide]: 117 nM; for `COc1cc2sc(C(=O)Nc3nnn[nH]3)c(OCc3ccc(-c4ccccc4)cc3)c2cc1OC` [Example C.4, 3-(Biphenyl-4-ylmethoxy)-5,6-dimethoxy-benzo[b]thiophene-2-carboxylic acid (1H-tetrazol-5-yl)-amide]: 2650 nM; for `COc1cc2c(Oc3ccc(OCC4CCCCC4)cc3)c(C(=O)Nc3nn[nH]n3)sc2cc1C` [Example B.16, 3-(4-Cyclohexylmethoxy-phenoxy)-5-methoxy-6-methyl-benzo[b]thiophene-2-carboxylic acid (2H-tetrazol-5-yl)-amide]: 126 nM. The same measure for `COc1cc2c(Oc3ccc(C(C)(C)C)cc3)c(C(=O)Nc3nn[nH]n3)sc2cc1C` [Example B.19, 3-(4-tert-Butyl-phenoxy)-5-methoxy-6-methyl-benzo[b]thiophene-2-carboxylic acid (2H-tetrazol-5-yl)-amide]: 9 nM; for `COc1cc2c(Oc3ccc(C4CCC(=O)CC4)cc3)c(C(=O)Nc3nn[nH]n3)sc2cc1C` [Example B.60, 5-Methoxy-6-methyl-3-[4-(4-oxo-cyclohexyl)-phenoxy]-benzo[b]thiophene-2-carboxylic acid (2H-tetrazol-5-yl)-amide]: 22 nM. `COc1cc2c(Oc3cccc(C(C)(C)C)c3)c(C(=O)Nc3nn[nH]n3)sc2cc1C` [Example B.18, 3-(3-tert-Butyl-phenoxy)-5-methoxy-6-methyl-benzo[b]thiophene-2-carboxylic acid (2H-tetrazol-5-yl)-amide]: the 50% inhibitory concentration (IC50) was 29 nM. For `CCCCC1CCCC(c2ccc(Oc3c(C(=O)Nc4nn[nH]n4)sc4cc(C)c(OC)cc34)cc2)C1` (stereo not shown) [Example B.52, 3-[4-(3-Butyl-cyclohexyl)-phenoxy]-5-methoxy-6-methyl-benzo[b]thiophene-2-carboxylic acid (2H-tetrazol-5-yl)-amide] the value was 1310 nM. For `COc1cc2sc(C(=O)Nc3nnn[nH]3)c(OCCc3ccc(N(C)C)cc3)c2cc1OC` [Example C.27, 3-[2-(4-Dimethylamino-phenyl)-ethoxy]-5,6-dimethoxy-benzo[b]thiophene-2-carboxylic acid (1H-tetrazol-5-yl)-amide] the value was 185 nM; for `COc1cc2c(Oc3ccc(CCBr)cc3)c(C(=O)Nc3nn[nH]n3)sc2cc1C` [Example B.10, 3-[4-(2-Bromo-ethyl)-phenoxy]-5-methoxy-6-methyl-benzo[b]thiophene-2-carboxylic acid (2H-tetrazol-5-yl)-amide], 15 nM.

With `COc1ccc2sc(C(=O)Nc3nn[nH]n3)c(Oc3cc(C)cc(C)c3)c2c1` [Example A.9, 3-(3,5-dimethyl-phenoxy)-5-methoxy-benzo[b]thiophene-2-carboxylic acid (2H-tetrazol-5-yl)-amide], the IC50 came out at 1200 nM. For `COc1cc2c(Oc3ccc(C4CCCCC4)cc3Br)c(C(=O)Nc3nn[nH]n3)sc2cc1C` [Example B.74, 3-(2-Bromo-4-cyclohexyl-phenoxy)-5-methoxy-6-methyl-benzo[b]thiophene-2-carboxylic acid (2H-tetrazol-5-yl)-amide] the value was 12 nM.
